# Source: patent publication US5043450A, “8-alkoxyquinolonecarboxylic acid and salts thereof” (priority 1986, dated 1991)
# How the values were obtained:
# Type in all cases: cell-based
# [1] = test system: Serratia marcescens IID 618; assay: Antibacterial spectra, MIC; details: IID618
# [2] = test system: Propionibacterium acens 11828; assay: Antibacterial spectra, MIC
# [3] = test system: P. mirabilis IID 994; assay: Antibacterial spectra, MIC; details: Proteus mirabilis, IID994
# [4] = test system: S. pyogenes IID 692; assay: Antibacterial spectra, MIC; details: Streptococcus pyogenes, IID692
# [5] = test system: Peptostreptococcus anaerobius KYA 27337; assay: Antibacterial spectra, MIC; details: KYA27337
# [6] = test system: Citrobacter freundii IID 976; assay: Antibacterial spectra, MIC; details: IID976
# [7] = test system: P. aeruginosa IID 1210; assay: Antibacterial spectra, MIC; details: Pseudomonas aeruginosa, IID1210
# [8] = test system: P. aeruginosa IFO 12689; assay: Antibacterial spectra, MIC; details: Pseudomonas aeruginosa, IFO12689
# [9] = test system: Escherichia coli NIHJ JC-2; assay: Antibacterial spectra, MIC; details: NIHJJC2
# [10] = test system: Yersinia enterocolitica IID 981; assay: Antibacterial spectra, MIC; details: IID981
# [11] = test system: Salmonella enteritidis IID 604; assay: Antibacterial spectra, MIC; details: Salmonella enterica
# [12] = test system: Morganella morganii IID 602; assay: Antibacterial spectra, MIC; details: IID602
# [13] = test system: Pseudomonas aeruginosa V-1; assay: Antibacterial spectra, MIC; details: V1
# [14] = test system: Staphylococcus aureus 209 P; assay: Antibacterial spectra, MIC
# [15] = test system: B. vulgatus KYA 29327; assay: Antibacterial spectra, MIC; details: Phocaeicola vulgatus, KYA29327
# [16] = test system: C. ramosum; assay: Antibacterial spectra, MIC; details: Thomasclavelia ramosa
# [17] = test system: B. thetaiotaomicron (0661); assay: Antibacterial spectra, MIC; details: Bacteroides thetaiotaomicron
# [18] = test system: F. necrophorum S-45; assay: Antibacterial spectra, MIC; details: Fusobacterium necrophorum, S45
# [19] = test system: Bacteroides fragilis GM 7000; assay: Antibacterial spectra, MIC; details: GM7000
# [20] = test system: B. distasonis 8503; assay: Antibacterial spectra, MIC; details: Parabacteroides distasonis
# [21] = test system: Clostridium difficile I-E; assay: Antibacterial spectra, MIC; details: Clostridioides difficile
# [22] = test system: Fusobacterium mortiferum 4249; assay: Antibacterial spectra, MIC
# [23] = test system: P. cepacia GIFU 518; assay: Antibacterial spectra, MIC; details: Burkholderia cepacia, GIFU518
# [24] = test system: Eubacterium lentum GAI 5242; assay: Antibacterial spectra, MIC; details: Eggerthella lenta, GAI5242
# [25] = test system: Bacilus subtilis PCI 219; assay: Antibacterial spectra, MIC; details: Bacillus subtilis, PCI219
# [26] = test system: B. fragilis 0558; assay: Antibacterial spectra, MIC; details: Bacteroides fragilis
# [27] = test system: E. coli ATCC 10536; assay: Antibacterial spectra, MIC; details: Escherichia coli, ATCC10536
# [28] = test system: Acinetobacter anitratus IID 876; assay: Antibacterial spectra, MIC; details: Acinetobacter calcoaceticus, IID876
# [29] = test system: Enterobacter cloacae IID 977; assay: Antibacterial spectra, MIC; details: IID977
# [30] = test system: Veillonella parvula KYA 10790; assay: Antibacterial spectra, MIC; details: KYA10790
# [31] = test system: Shigella sonnei IID 969; assay: Antibacterial spectra, MIC; details: IID969, 10^6 cells/ml, Gram -
# Description: (§1) The antibacterial test was carried out according to the method designated by Japan Society of Chemotherapy.
# [32] = test system: E. faecalis IID 682; assay: Antibacterial spectra, MIC; details: Enterococcus faecalis, IID682; 10^6 cells/ml; Gram +
# Description: as §1
# [33] = test system: Streptococcus pyogenes (S-8); assay: Antibacterial spectra, MIC; details: 10^6 cells/ml, Gram +
# Description: as §1
# [34] = test system: E. coli ML 4707; assay: Antibacterial spectra, MIC; details: Escherichia coli, ML4707; 10^6 cells/ml; Gram -
# Description: as §1
# [35] = test system: Proteus vulgaris IFO 3167; assay: Antibacterial spectra, MIC; details: IFO3167, 10^6 cells/ml, Gram -
# Description: as §1
# [36] = test system: Peptococcus magnus KY 017; assay: Antibacterial spectra, MIC; details: Finegoldia magna, KY017
# [37] = test system: B. fragilis 25285; assay: Antibacterial spectra, MIC; details: Bacteroides fragilis
# [38] = test system: Klebsiella pneumoniae KY(GN)6445; assay: Antibacterial spectra, MIC
# [39] = test system: S. aureus IID 670 (Terajima); assay: Antibacterial spectra, MIC; details: Staphylococcus aureus, IID670
# [40] = test system: C. perfringens KYA 13123; assay: microbe, parasite or virus in culture; details: Clostridium perfringens, KYA13123
# [41] = test system: Pst. micros UPI 5464-1; assay: Antibacterial spectra, MIC; details: Parvimonas micra, UPI54641
# [42] = test system: F. varium KYA 8501; assay: Antibacterial spectra, MIC; details: Fusobacterium varium, KYA8501; 10^6 cells/ml; Gram -; read-out: MIC
# [43] = test system: Alcaligenes faecalis 0114002; assay: Antibacterial spectra, MIC
# [44] = test system: P. maltophilia GIFU 2491; assay: Antibacterial spectra, MIC; details: Stenotrophomonas maltophilia, GIFU2491
# [45] = test system: S. aureus Smith; assay: Antibacterial spectra, MIC; details: Staphylococcus aureus
# [46] = test system: S. epidermidis IID 866; assay: Antibacterial spectra, MIC; details: Staphylococcus epidermidis, IID866
# [47] = test system: K. pneumoniae 1-220S; assay: Antibacterial spectra, MIC; details: Klebsiella pneumoniae, 1220S
# [48] = test system: S. pneumoniae IID 552; assay: Antibacterial spectra, MIC; details: Streptococcus pneumoniae, IID552
compound,measurement,setting,value
"COc1c(N2C[C@@H](C)[C@H](N)C2)c(F)cc2c(=O)c(C(=O)O)cn(C3CC3)c12 (relative stereo) [Exp. 6, 7-(trans-3-amino-4-methyl-1-pyrrolidinyl)-1-cyclopropyl-6-fluoro-1,4-dihydro-8-methoxy-4-oxo-3-quinolinecarboxylic acid]",MIC,[1],0.05 µg/mL
same,MIC,[2],3.13 µg/mL
same,MIC,[3],0.05 µg/mL
same,MIC,[4],0.1 µg/mL
same,MIC,[5],0.1 µg/mL
same,MIC,[6],0.05 µg/mL
same,MIC,[7],0.78 µg/mL
same,MIC,[8],0.78 µg/mL
same,MIC,[9],0.0125 µg/mL
same,MIC,[10],0.05 µg/mL
same,MIC,[11],0.05 µg/mL
same,MIC,[12],0.1 µg/mL
same,MIC,[13],0.78 µg/mL
same,MIC,[14],0.025 µg/mL
same,MIC,[15],0.2 µg/mL
same,MIC,[16],0.78 µg/mL
same,MIC,[17],0.2 µg/mL
same,MIC,[18],0.2 µg/mL
same,MIC,[19],0.1 µg/mL
same,MIC,[20],0.39 µg/mL
same,MIC,[21],0.78 µg/mL
same,MIC,[22],0.2 µg/mL
same,MIC,[23],0.39 µg/mL
same,MIC,[24],≤ 0.05 µg/mL
same,MIC,[25],0.0125 µg/mL
same,MIC,[26],0.1 µg/mL
same,MIC,[27],0.0125 µg/mL
same,MIC,[28],0.05 µg/mL
same,MIC,[29],0.05 µg/mL
same,MIC,[30],0.2 µg/mL
same,MIC,[31],0.0125 µg/mL
same,MIC,[32],0.1 µg/mL
same,MIC,[33],0.05 µg/mL
same,MIC,[34],0.0125 µg/mL
same,MIC,[35],0.05 µg/mL
same,MIC,[36],≤ 0.05 µg/mL
same,MIC,[37],0.1 µg/mL
same,MIC,[38],0.05 µg/mL
same,MIC,[39],0.05 µg/mL
same,MIC,[40],0.2 µg/mL
same,MIC,[41],0.2 µg/mL
same,MIC,[42],1.56 µg/mL
same,MIC,[43],0.2 µg/mL
same,MIC,[44],0.05 µg/mL
same,MIC,[45],0.05 µg/mL
same,MIC,[46],0.1 µg/mL
same,MIC,[47],0.05 µg/mL
same,MIC,[48],0.1 µg/mL
